Measurements reported in patent US20060106099A1, “Novel inhibitors of ubiquitin isopeptidases” (priority 2002, published 2006).
Where two headings read alike, the source gives them in different places.

Columns and labels:
HCT 116 −/− cells = experiment: MTT cell viability assay, HCT 116 p53 −/− cells; settings: Homo sapiens, HCT-116, 48 h, read-out: Cytotoxic Potency (EC50) HCT −/−
RKO-E6 cells = experiment: MTT cell viability assay, RKO-E6 cells; settings: for EC50: Homo sapiens, RKOE6, 48 h, read-out: Cytotoxic Potency (EC50) RKO-E6
HCT 116 +/+ cells = experiment: MTT cell viability assay, HCT 116 p53 +/+ cells; settings: for cell death in HCT 116 +/+ compared with HCT 116 −/− cells: 48 h, MTT, isogenic pair; for EC50: Homo sapiens, HCT-116, 48 h, read-out: Cytotoxic Potency (EC50) HCT +/+
Method: (§6) Cell viability was measured with MTT reagent as described in materials and methods.
(§7) Cell viability was detected by the MTT assay. Briefly, 1×10^5 cells were incubated per well of a sterile, 96-well assay plate with 0-60 μM of test compounds for 48 hours. MTT reagent was added to each well, final concentration of 0.5 mg/mL, and incubated for an additional 3 hours. The media was aspirated and remaining MTT reagent from each well and added 100 μL of HCl:isopropanol (1:24). The absorbance of each sample was measured at 405 nm.

ubiquitin isopeptidases [1] = experiment: Ubiquitin isopeptidase activity, Ub-PEST substrate, lysates of treated RKO and HCT 116 cells; assay type: cell-based, human; settings: cells treated 6, 20 or 60 μM, 12 h
Method: A) Inhibition of isopeptidase proteolysis of Ub-PEST substrate. RKO and HCT 116 cells were treated with DMSO vehicle, 6, 20, or 60 μM of Δ12-PGJ2, DBA, NSC-302979, or curcumin, 60 μM PGB1, 60 μM NSC-156236, or 60 μM DPTP for 12 h, 37° C. Cell lysates from each treatment were incubated with Ub-PEST, as described in materials and methods. Samples were fractionated by SDS-PAGE and proteins detected with ubiquitin epitopes immunochemically (HCT 116 ^+/+ western blot shown as example of raw data). […] B) Inhibition of isopeptidase activity by test panel compounds. Isopeptidase activity was determined by measuring via densitometry, the amount of Ub generated by isopeptidase cleavage of Ub-PEST. Bar graph patterns are DMSO vehicle (black), Δ12-PGJ2 (hatched), DBA (horizontal lines), NSC-302979 (white), PGB1 (diagonally downward right lines), and NSC-156236 (diagonally downward left lines). The amount of Ub generated in the vehicle treated sample (panel A, lane 2) is arbitrarily designated 100%.
Cellular isopeptidase enzymatic activity was measured with two assays that used different substrates. In one assay ubiquitin-PEST (Ub-PEST) was used, a full-length ubiquitin molecule with an 18 amino acid c-terminal peptide extension (total mass=10.5 kDa). Ubiquitin isopeptidases specifically cleave the 18 amino acid peptide extension, releasing full-length ubiquitin (8.5 kDa).
Briefly, 6×10^5 cells were incubated with 0-60 μM of test compounds for 12 hrs. Cells were lysed in 50 μL of 25 mM HEPES, 5 mM EDTA, 0.1% CHAPS, 5 mM ATP, pH 7.5. The protein concentration of each sample was adjusted to 0.3 mg/mL and incubated with 50 μg/mL Ub-PEST for 45 minutes at 25° C. Under these conditions, Ub-PEST hydrolysis occurs at a linear rate. 20 μL samples were mixed with 20 μL 2× Laemmli buffer, boiled briefly, and fractionated by SDSPAGE. Isopeptidase activity was monitored by determining the amount of product (8.5 kDa ubiquitin) formation.

p53 = p53 accumulation, ratio RKO-E6 cells/RKO cells (immunoblot, densitometry); assay type: cell-based, human; settings: 6 h; etoposide 50 μM, MG115, NSC-302979, DBA 20 μM, others 60 μM
Method: (§1) A) Accumulation of polyubiquitin. RKO-E6 cells were treated with DMSO vehicle for 24 h, 37° C., or with the concentrations of test compounds that gave 80% cell death (as determined by cell viability assay at 48 h) for 6, 12, or 24 h, 37° C. […] Schematic depicting p53 degradation via the proteasome pathway in RKO cells versus RKO-E6 cells. The activity of the HPV E6 oncoprotein hastens p53 degradation in RKO-E6 cells. ii. RKO and RKO-E6 cells were treated with vehicle, etoposide (50 μM), MG115 (20 μM), Δ12-PGJ2 (60 μM), NSC-302979 (20 μM, DBA (20 μM), curcumin (60 μM), PGB1 (60 μM), NSC-156236, (60 XM)or DPTP 60 μM for 6 h, 37° C. Lysates were fractionated by SDS-PAGE and their p53 content determined immunochemically. iii. p53 levels were measured by densitometry and the ratio of p53 protein in RKO-E6 cells/RKO cells calculated.
(§2) The medium was removed and cells lysed in 50 mM Tris, pH 7.4, 100 mM NaCl, 2 mM EDTA with 0.1% SDS, 0.1% deoxycholate, 1× complete protease inhibitor mixture. Protein concentration was measured by the Bradford method. Equal portions of the total cell lysate were fractionated from each sample (12.5 μg of protein) by SDS-PAGE. Proteins were transferred to poly(vinylidene difluoride) blocked with 5% (w/v) nonfat dry milk in Trisbuffered saline [20 mM Tris-HCl, pH 7.5, 100 mM sodium chloride, 0.1% (v/v) Tween 20]. Proteins were detected immunochemically by using primary antibodies directed against p53 (1:4000) or ubiquitin (1:1000), followed by horseradish peroxidase-conjugated secondary antibodies (1:4000). Antigen-antibody complexes were detected with enhanced chemiluminescence reagents. Gels were scanned and quantified intensities using Kodak 1D Image Analysis Software.

ubiquitin isopeptidases [2] = experiment: Ubiquitin isopeptidase activity, z-LRGG-AMC substrate, lysates of treated RKO and HCT 116 cells; assay type: cell-based, human; settings: cells treated 6, 20 or 60 μM, 12 h
Method: RKO (upper) and HCT 116 ^+/+ cells (lower) were treated with DMSO vehicle, 6, 20, or 60 μM of Δ12-PGJ2, DBA, NSC-302979, or curcumin, 60 μM PGB1, 60 μM NSC-156236, or 60 μM DPTP for 12 h at 37° C. Cell lysates (0.5 mg/mL) from each treatment were incubated with the isopeptidase substrate, z-LRGG-AMC, for 3 h, 37° C. The amount of AMC cleaved by isopeptidase was determined fluorometrically, as described in Materials and Methods.
The second assay used a fluorescent tetrapeptide, z-LRGG-AMC, as a substrate that mimics the carboxy-terminus of ubiquitin. Isopeptidase activity hydrolyzes the bond between the c-terminal glycine and the fluorophore. This tetrapeptide also undergoes slow proteolysis by the catalytic subunit of the proteasome. To minimize this background rate of proteolysis cell lysates were incubated with 30 μM MG115 for 30 minutes at 4° C., prior to substrate incubation (>90% proteasome inhibition). Cells were teeated as above, lysed in 250 μL of lysis buffer per sample, and adjusted protein concentration to 0.5 mg/mL prior to incubation with MG115. Next, z-LRGG-AMC substrate was added and fluorescence was quantified of the AMC moiety cleaved by isopeptidase action.

RKO cells = experiment: MTT cell viability assay, RKO cells; settings: 48 h; for cell death in RKO compared with RKO-E6 cells: MTT, isogenic pair; for EC50: Homo sapiens, RKO, read-out: Cytotoxic Potency (EC50) RKO
Method: as §6, §7

[3] = system: polyubiquitin conjugates in RKO-E6 cells; experiment: Accumulation of polyubiquitin in RKO-E6 cells (immunoblot); assay type: cell-based, human; settings: EC80 or 60 μM, 6-24 h
Method: as §1, §2

HCT 116 (p21^−/−) = experiment: MTS cytotoxicity, HCT 116 (p21−/−); assay type: cell-based; settings: Homo sapiens, log of EC50 in μM, 48 h, read-out: Log EC50 +/− Standard Error of Log EC50, HCT 116 (p21−/−) (converted)
Text: (§3) Cytotoxicity in Human Colon Tumor (HCT) Cell Lines. To determine if punaglandins elicit cytotoxicity independently of the tumor-suppressor p53, as do other dienone prostaglandins, several cytotoxicity assays were employed. First, cell death effects of all isolated punaglandins were investigated in pairs of isogenic colon cancer cell lines, the HCT 116^+/+ competent cell line and HCT 116^−/− null cell lines. HCT 116^+/+ cells are homozygous for p53^+/+ and p21^+/+; where as, HCT 116^−/− cells lack both alleles for p53 (p53^−/−) or p21 (p21^−/−).
(§4) Each cell line was seeded simultaneously in 96-well plates and incubated for 24 h before treatment with individual punaglandins at various concentrations for 48 additional h. Cytotoxicity was determined using MTS and absorbances were recorded at 490 nm. Half maximal effective concentrations (EC50) and Log EC50s were calculated from a concentration-response curve generated using GraphPad Prism (Table 1).

HCT 116 (p21 wt) = experiment: MTS cytotoxicity, HCT 116 (p21 wt); assay type: cell-based; settings: Homo sapiens, log of EC50 in μM, 48 h, read-out: Log EC50 +/− Standard Error of Log EC50, HCT 116 (p21 wt) (converted)
Text: as §3, §4

HCT 116 (p53 wt) = experiment: MTS cytotoxicity, HCT 116 (p53 wt); assay type: cell-based; settings: Homo sapiens, 48 h
Text: as §3, §4

HCT 116 (p53^−/−) = experiment: MTS cytotoxicity, HCT 116 (p53−/−); assay type: cell-based; settings: Homo sapiens, log of EC50 in μM, 48 h, read-out: Log EC50 +/− Standard Error of Log EC50, HCT 116 (p53−/−) (converted)
Text: as §3, §4

ubiquitin isopeptidases [4] = experiment: In vitro isopeptidase activity in HCT 116 lysates, Ub-PEST; assay type: biochemical, human; settings: HCT 116 lysates, 45 min
Method: (§5) Isopeptidase Assay. It was hypothesized that the punaglandins would inhibit ubiquitin-isopeptidase activity of the proteasome pathway as does the prostaglandin, Δ^12-PGJ2 (1), but with greater potency because of the chlorinated C-10. To validate this theory, cellular isopeptidase enzymatic activity was measured in vitro after treatment with individual punaglandins, PNG 2 (6), PNG 3 (7), and Z-PNG 4 (9) and in vivo after individual treatment with PNG 4 (8) and PNG 6 (10). This activity was determined utilizing the simple isopeptidase substrate, ubiquitin-PEST (Ub-PEST), a full/length ubiquitin (Ub) molecule fused with an 18-amino acid C-terminal peptide extension that most isopeptidases use as a substrate. The polypeptide extension contains regions rich in Pro (P), Glu (E), Ser (S), and Thr (T) residues called PEST motifs that are responsible for rapid degradation of these and other unstable proteins. Ub isopeptidases specifically cleave this peptide extension, yielding free, full-length Ub. Both the fused Ub-PEST (10.5 kDa) and the cleaved, free Ub (8.5 kDa) can be observed via immunochemical detection.
In Vitro Isopeptidase Activity. PNG 2 (6), PNG 3 (7), and Z-PNG 4 (9) were initially analyzed for isopeptidase activity in vitro in HCT 116 lysates. Cells were lysed with isopeptidase activity buffer and protein concentration adjusted to 0.3 mg/mL per sample. Each sample was subsequently incubated with 2 μM, 6 μM, 20 μM, 60 μM, or 200 μM of PNG 2 (6), PNG 3 (7), Z-PNG 4 (9), Δ^12-PGJ2 (1), and PGA1 (2) in addition to 50 μg/ml of Ub-PEST. Negative control cells were treated with vehicle (0.5% DMSO) and equivalent Ub-PEST. […] The amount of fused Ub-PEST and free Ub product was determined by SDS-PAGE fractionation.

ubiquitin isopeptidases [5] = experiment: In vivo isopeptidase activity after treatment of RKO cells, Ub-PEST; assay type: cell-based, human; settings: 6 h
Method: as §5
In vivo Isopeptidase Activity. To investigate whether punaglandins can inhibit isopeptidase activity in vivo, isopeptidase activity was analyzed after punaglandin treatment of RKO cells. PNG 4 (8) and PNG 6 (10) were selected for in vivo investigation because they differ only in enone functionality, where (8) is a dienone and (10) an enone. RKO cells were incubated with 1 μM, 4 μM, or 7 μM of PNG 4 (8) and PNG 6 (10). […] As a positive control, cells were treated with a known isopeptidase inhibitor, shikoccin (SK). After 6 h drug treatment, cells were lysed and protein concentration adjusted to 0.3 mg/mL per sample. Each sample was subsequently incubated with 50 μg/mL of Ub-PEST. The reaction was terminated after 20 min and the respective amounts of Ub-PEST (10 kDa) and free Ub product (8.5 kDa) were determined by SDS-PAGE fractionation.

[6] = log of EC50 in μM, read-out: Log EC50 +/− Standard Error of Log EC50, HCT 116 (p53 wt) (converted)

SMILES | EC50 (HCT 116 −/− cells) [µM] | EC50 (RKO-E6 cells) [µM] | cell death in HCT 116 +/+ compared with HCT 116 −/− cells (HCT 116 +/+ cells) | EC50 (HCT 116 +/+ cells) [µM] | inhibition of isopeptidase cleavage of Ub-PEST (ubiquitin isopeptidases [1]) | ratio of p53 protein [RKO-E6 cells/RKO cells] (p53) | inhibition of z-LRGG-AMC hydrolysis by ubiquitin isopeptidases (ubiquitin isopeptidases [2]) | cell death in RKO compared with RKO-E6 cells (RKO cells) | EC50 (RKO cells) [µM] | cellular accumulation of polyubiquitin conjugates [3] | EC50 (HCT 116 (p21^−/−)) [µM] | EC50 (HCT 116 (p21 wt)) [µM] | EC50 (HCT 116 (p53 wt); [6]) [µM] | EC50 (HCT 116 (p53^−/−)) [µM] | other results
O=C(C=Cc1ccccc1)C=Cc1ccccc1 [DBA, dibenzylideneacetone] | 3.8 ± 0.1 | 6.5 ± 1.1 | caused cell death with equal potency | 3.2 ± 0.1 | inhibited isopeptidase activity in a concentration dependent manner | approached unity | inhibited ubiquitin isopeptidase activity | caused cell death with equal potency and efficacy | 7 ± 0.6 | protein species with polyubiquitin conjugation accumulated in cells | – | – | – | – | EC80, concentration that gave 80% cell death (RKO-E6 cells; cell viability assay at 48 h, RKO-E6 cells): 12.0 µM
O=c1cc(-c2ccccc2)sc(-c2ccccc2)c1 [DPTP, 2,6-Diphenyl-4H-thiopyran-4-one] | > 60 | > 60 | did not cause significant cell death | > 60 | did not inhibit isopeptidase activity | significantly less than unity | did not | did not cause significant cell death | > 60 | did not cause appreciable cellular accumulation of ubiquitin conjugates | – | – | – | – | –
CCCCC/C=C\C[C@@]1(O)C=C(Cl)C(=O)[C@@H]1[C@@H](OC(C)=O)[C@H](OC(C)=O)[C@H](CCCC(=O)OC)OC(C)=O [PNG 2] | – | – | – | – | – | – | – | – | – | – | 0.0398 | 0.0468 | 0.0398 | 0.0398 | –
CC/C=C\C/C=C\C[C@@]1(O)C=C(Cl)C(=O)/C1=C/[C@H](OC(C)=O)[C@H](CCCC(=O)OC)OC(C)=O [PNG 3] | – | – | – | – | – | – | – | – | – | – | 0.295 | 0.288 | 0.324 | 0.372 | concentration at which inhibition of Ub-PEST degradation is initially observed (ubiquitin isopeptidases [4]): 20 µM; concentration of complete (total) inhibition of Ub-PEST degradation (ubiquitin isopeptidases [4]): 60 µM; EC50 (HCT 116 (p53 wt); average over the three compounds, read-out: average EC50 of PNG 3, PNG 4 and PNG 6, cytotoxicity in HCT 116 cell lines): ~0.35 µM
C[C@@H]1C[C@@H]([C@H](O)CC2CC(=O)NC(=O)C2)C(=O)[C@@H](C)C1 [cycloheximide] | – | – | – | – | – | – | – | – | – | – | – | – | – | – | effect on Ub-PEST degradation, control substances (ubiquitin isopeptidases [5]): 1:1 ratio of Ub-PEST to free Ub
